Measured values reported in US5216142A, “Anti-virals” (Efamol Holdings plc, priority 1989, dated 1993).
Values after ≈ are worked out from the molar mass of the structure shown. “Also recorded” adds a separate entry of the source. Where two headings read alike, the source gives them in different places.

Key:
HTLV-IIIB = assay: Anti-HIV activity assay, HTLV-IIIB (MT-4 cells, MTT method); assay type: cell-based; conditions: for Selectivity index (SI): CD50/ED50, HTLV-IIIB; for EC50: Human immunodeficiency virus 1, MT4, 120 h, MT-4 cells, five days, HTLV-IIIB, read-out: ED50 (50% effective dose)
Method: (§1) Results in relation to HIV virus were obtained by the method of Pauwels et al, Journal of Virological Methods 20, 309 to 321 (1988), as follows:
(§2) MT-4 cells (2.5×10^4 /well) were infected with HIV (100 CCID50) and incubated in the presence of varying concentrations of the test compounds (added immediately after virus infection). After five days incubation at 37° C. in a CO2 incubator, the number of viable cells was assessed by the MTT (tetrazolium) method. Anti-viral activity and cytotoxicity of the compounds are expressed as ED50 (50% effective dose) and CD50 (50% cytotoxic dose), respectively. SI (selectivity index=CD50 /ED50.
(§3) These are given in Table 8 and Table 9 below in relation to HTLV-IIIB and LAV-2ROD viruses.

[1] = tested on: herpes simplex virus Type I (HSV I); assay: Inhibition of virus replication (plaque assay, BHK-21 cells); assay type: cell-based, Type 1, Troisbel strain; conditions: for Viral titre (inhibition of replication): control 9.0 × 10^8; for log reduction at 0.1 µg/mL: 0.1 mg/l; for log reduction at 0.5 µg/mL: 0.5 mg/l
Method: 1. Mono-layers of baby hamster kidney cells (BHK-21) are prepared in Petri dishes containing ETC medium (Eagle's minimal essential medium +10% tryptose phosphate broth +10% new born calf serum).
2. After incubation the medium is poured off to leave the layer of cells attached to the Petri dish. A solution containing virus, specifically herpes simplex virus Type I (HSV I) for example, in ETC medium is then added to the dish and incubated with intermittent rocking for one hour to allow the virus to adsorb to the cells of the mono-layer. Unadsorbed virus is then removed by pouring off the virus-containing medium and washing twice with new sterile medium. Then new medium is added to each Petri dish. At this stage various concentrations of drug can be added to the medium.
3. […] First the dishes are frozen to -70° C. and thawed to disrupt the mono-layer and break up the cells. Then the medium and the disrupted cells are transferred to bijou bottles and sonicated to break down the cells completely and to release all the virus particles the cells contain. The sonicated medium is then diluted with fresh sterile ETC medium to give concentrations of the original Petri dish fluid of 10^-2, 10^-4, 10^-6 and 10^-8.
4. The number of virus particles (plaque forming units) in the dilutions is then assayed. A standard number of BHK cells (usually 8×10^6) is added to 2 ml of the diluted solutions and incubated for one hour, with cautious, gentle shaking, and 8 ml of Eagle's minimal essential medium +2% new born calf serum + carboxymethyl cellulose is then added to the cell suspension. This medium has gelling properties which prevent spreading of the virus through the medium and which encourage the formation of discrete plaques in cell mono-layers. The medium from each dilution is then dispensed into Petri dishes and incubated for two to three days.
5. The number of plaques formed is then counted and the amount of active virus expressed as the number of plaque forming units (pfus) as follows. The medium is poured off and the cell mono-layer is fixed using 10% formol saline and stained with dilute carbol fuchsin. The number of plaques in each Petri dish is counted. Based on the dilutions, the number of plaque forming virus particles in the original solutions is calculated.
In the Table, the figures are the concentration of viral particles in pfu/ml present in the cells + medium at the end of the replication stage (3).

herpes simplex = assay: Topical application to herpetic lesion; assay type: in vivo, human; conditions: ointment or cream 2% by weight, 1 to 5 mg/cm^2 three times daily for one week; after three days
Method: Example (6) Ointment or cream for topical administration against herpes simplex, containing 2% by weight GLA-AZT. It may be applied to a human afflicted with a herpetic lesion at the afflicted sites at a rate of 1 to 5 mg/cm^2 three times daily for a period of one week.

in vitro = assay type: cell-based; conditions: human, mt-4 cells, CD50 (50% cytotoxic dose)
Method: as §1, §2

MT-4 cells = assay: in vitro; assay type: cell-based; conditions: human, 120 h
Method: as §1, §2

[2] = tested on: herpes simplex virus Type I; assay: Inactivation of virus (30 minutes incubation, plaque assay); assay type: cell-based, Type 1, Troisbel strain; conditions: for Virus titre (inactivation of virus): 30 minutes, control 5.4 × 10^4 (GLA-alcohol), 4.5 × 10^4 (GLA-AZT)
Method: 1. A virus solution containing 2×10^5 pfu/ml is prepared in phosphate buffered saline (Dulbecco's A).
2. The compound to be tested is made up in Dulbecco's medium A in a suitable range of dilutions.
3. Equal volumes of the virus and drug solution are mixed together. Control solutions without drug are also used.
4. The virus and drug are incubated for an appropriate period of time, in this example, thirty minutes.
5. The numbers of active viral particles in the solution are assayed as in items 4 and 5 under A.
The results are shown below (Table 6). In the Table, the figures are concentrations of viral particles present after incubation of the virus for 30 minutes with solutions of the drugs.

LAV-2ROD = assay: Anti-HIV activity assay, LAV-2ROD (MT-4 cells, MTT method); assay type: cell-based; conditions: for Selectivity index (SI): CD50/ED50, LAV-2ROD; for EC50: MT4, 120 h, read-out: ED50 (50% effective dose)
Method: as §1, §2, §3

viral polymerases = conditions: tested lacking the phosphate groups; cited from earlier work
Absolute solubilities = assay type: physicochemical
[3] = tested on: herpes simplex virus Type I (HSV I); conditions: cited from earlier work; for Activity against herpes viruses (in words): herpes zoster and herpes simplex
adenosine deaminase = conditions: human plasma; cited from earlier work
[4] = tested on: herpes simplex virus Type I; conditions: known, e.g. E. de Klerk et al 1980; cited from earlier work
[5] = cited from earlier work
[6] = MT-4 cells, five days, LAV-2ROD
[7] = Human alphaherpesvirus 1, BHK-21, 24 h, read-out: Inhibition of viral replication (log10 reduction in virus titre)
[8] = chloroform, organic solvent or mixture, CHCl3 98 to 99% pure, with 1% balance ethanol to stabilise, read-out: Absolute solubility in CHCl3
[9] = in water, read-out: Absolute solubility in water

SMILES: CCCCC/C=C\C/C=C\C/C=C\CCCCC(=O)OC[C@H]1O[C@@H](n2cc(C)c(=O)[nH]c2=O)C[C@@H]1N=[N+]=[N-] [AK 1, GLA - 3'azido-3'-deoxythymidine]
- Selectivity index (SI) (HTLV-IIIB): 7993
- EC50 (HTLV-IIIB): 0.000754 µg/mL (≈ 0.00143 µM)
- Viral titre (inhibition of replication) ([1]; 25 μg/ml (47.5 × 10^-6 molar)): 1.02 × 10^8 pfu/ml
- Viral titre (inhibition of replication) ([1]; 50 μg/ml (95.0 × 10^-6 molar)): < 1.0 × 10^2 pfu/ml
- Inhibition of herpes virus replication (in words) ([1]; listed as AZT-GLA): to inhibit its replication
- Inhibition of herpes virus replication (in words) ([1]; listed as GLA-AZT): able to inhibit viral replication effectively; also recorded: gains the property of inhibiting herpes virus replication
- Inhibition of viral replication (in words) ([1]; up to 100 mg/l): no inhibition
- Reduction in the size of the lesion (herpes simplex): Reduction in the size of the lesion is noted
- % in chloroform phase (partition co-efficients, water/chloroform): > 99%
- CC50 at 120 h (in vitro): 6.03 µg/mL (≈ 11.4 µM)
- CD50 (50% cytotoxic dose) (MT-4 cells): 8.3825 µg/mL
- Virucidal activity / inactivation of herpes virus (in words) [2]: virucidal
- Virus titre (inactivation of virus) ([2]; 5 μg/ml): 2.7 × 10^3
- Virus titre (inactivation of virus) ([2]; 25 μg/ml): < 1.0 × 10^2
- log reduction at 1 µg/mL ([2]; Human alphaherpesvirus 1, 0.5 h, 1 mg/l, read-out: Inactivation of virus (log10 reduction in virus titre)): 1
- log reduction at 5 µg/mL ([2]; Human alphaherpesvirus 1, 0.5 h, 5 mg/l, read-out: Inactivation of virus (log10 reduction in virus titre)): 2
- Virucidal activity / inactivation of herpes virus (in words) ([2]; listed as AZT-GLA): able both to inactivate the herpes virus
- Virucidal activity / inactivation of herpes virus (in words) ([2]; listed as GLA-AZT): more effective
- Selectivity index (SI) (LAV-2ROD): 9770
- EC50 (LAV-2ROD; [6]): 0.000858 µg/mL (≈ 0.00163 µM)

SMILES: Nc1nc2c(ncn2COCCO)c(=O)[nH]1 [AK 9, Acyclovir, reference compound]
- Activity against viral polymerases (in words) (viral polymerases): inactive
- Selectivity index (SI) (HTLV-IIIB): < 1
- EC50 (HTLV-IIIB): > 1000 µg/mL
- log reduction at 0.1 µg/mL [1, 7]: 2
- log reduction at 0.5 µg/mL [1, 7]: 2.3
- solubility (Absolute solubilities; [8]): 6 µg/mL (≈ 26.6 µM)
- solubility (Absolute solubilities; [9]): 1590 µg/mL (≈ 7060 µM)
- % in chloroform phase (partition co-efficients, water/chloroform): 1%
- CC50 at 120 h (in vitro): 300 µg/mL (≈ 1330 µM)
- CD50 (50% cytotoxic dose) (MT-4 cells): 397.5805 µg/mL
- Inactivation of virus (in words) ([2]; up to 50 mg/l): no inactivation
- Selectivity index (SI) (LAV-2ROD): < 1
- EC50 (LAV-2ROD): > 10000 µg/mL

SMILES: CCCCC/C=C\C/C=C\C/C=C\CCCCC(=O)OCCOCn1cnc2c(=O)[nH]c(N)nc21 [AK 5]
- Selectivity index (SI) (HTLV-IIIB): < 1
- EC50 (HTLV-IIIB): > 40 µg/mL
- log reduction at 0.1 µg/mL [1, 7]: 1
- log reduction at 0.5 µg/mL [1, 7]: 2.2
- solubility (Absolute solubilities; [8]): > 50000 µg/mL
- solubility (Absolute solubilities; [9]): 28 µg/mL (≈ 57.7 µM)
- % in chloroform phase (partition co-efficients, water/chloroform): > 99%
- CC50 at 120 h (in vitro): 17.2 µg/mL (≈ 35.4 µM)
- CD50 (50% cytotoxic dose) (MT-4 cells): 18.7751 µg/mL
- Virucidal activity / inactivation of herpes virus (in words) [2]: lacking in this activity
- Inactivation of virus (in words) ([2]; up to 50 mg/l): no inactivation
- Selectivity index (SI) (LAV-2ROD): < 1
- EC50 (LAV-2ROD; [6]): > 40 µg/mL

SMILES: Cc1cn2c(nc1=O)O[C@@H]1C[C@H]2O[C@@H]1CO [AK 8, Anhydrothymidine, reference compound]
- Selectivity index (SI) (HTLV-IIIB): 59
- EC50 (HTLV-IIIB): 13.1 µg/mL (≈ 58.4 µM)
- Inhibition of herpes virus replication (in words) [1]: no effect
- Inhibition of viral replication (in words) ([1]; concentration not given, Table 7): no inhibition
- % in chloroform phase (partition co-efficients, water/chloroform): 4%
- Activity against herpes viruses (in words) [3]: inactive
- Virucidal activity / inactivation of herpes virus (in words) [2]: no effect
- Inactivation of virus (in words) ([2]; 10 mg/l): no inactivation
- log reduction at 25 µg/mL ([2]; Human alphaherpesvirus 1, 0.5 h, 25 mg/l, read-out: Inactivation of virus (log10 reduction in virus titre)): 0.7
- Selectivity index (SI) (LAV-2ROD): 15
- EC50 (LAV-2ROD; [6]): 21.8 µg/mL (≈ 97.2 µM)

SMILES: Nc1ncnc2c1ncn2[C@H]1CC[C@@H](CO)O1 [ddA]
- Conversion of ddA to ddI (adenosine deaminase): within minutes

SMILES: CCCCC/C=C\C/C=C\CCCCCCCC(=O)OCCOCn1cnc2c(=O)[nH]c(N)nc21 [AK 6]
- Selectivity index (SI) (HTLV-IIIB): < 1
- EC50 (HTLV-IIIB): > 40 µg/mL
- log reduction at 1 µg/mL ([1]; Human alphaherpesvirus 1, BHK-21, 24 h, 1 mg/l, read-out: Inhibition of viral replication (log10 reduction in virus titre)): 2.4
- log reduction at 5 µg/mL ([1]; Human alphaherpesvirus 1, BHK-21, 24 h, 5 mg/l, read-out: Inhibition of viral replication (log10 reduction in virus titre)): 4.2
- solubility (Absolute solubilities; [8]): > 50000 µg/mL
- solubility (Absolute solubilities; [9]): 14 µg/mL (≈ 28.7 µM)
- % in chloroform phase (partition co-efficients, water/chloroform): > 99%
- Virucidal activity / inactivation of herpes virus (in words) [2]: lacking in this activity
- Inactivation of virus (in words) ([2]; up to 50 mg/l): no inactivation
- Selectivity index (SI) (LAV-2ROD): < 1
- EC50 (LAV-2ROD; [6]): > 100 µg/mL

SMILES: Cc1cn([C@H]2C[C@H](N=[N+]=[N-])[C@@H](CO)O2)c(=O)[nH]c1=O [AK 7, zidovudine, reference compound]
- Activity against viral polymerases (in words) (viral polymerases): inactive
- Selectivity index (SI) (HTLV-IIIB): 4131
- EC50 (HTLV-IIIB): 0.000372 µg/mL (≈ 0.00139 µM)
- Inhibition of herpes virus replication (in words) ([1]; listed as AZT): no effect; also recorded: not found
- Inhibition of viral replication (in words) ([1]; up to 100 mg/l): No inhibition
- Effect on inactivation of herpes simplex virus (in words) [4]: no effect
- % in chloroform phase (partition co-efficients, water/chloroform): 15%
- Activity against herpes viruses (in words) [3]: inactive
- Effect on replication of herpes simplex virus (in words) ([3]; known, e.g. E. de Klerk et al 1980): no effect
- CC50 at 120 h (in vitro): 1.54 µg/mL (≈ 5.75 µM)
- CD50 (50% cytotoxic dose) (MT-4 cells): 1.5633 µg/mL
- Virucidal activity / inactivation of herpes virus (in words) [2]: no effect
- Inactivation of virus (in words) ([2]; up to 50 mg/l): no inactivation
- Excreted unchanged into the urine ([5]; in vivo): Fifteen to twenty
- Metabolised by hepatic glucuronidation ([5]; to 3'-azido-2'-3'-dideoxy-5'-glucuronyl thymidine): seventy five
- Selectivity index (SI) (LAV-2ROD): 2928
- EC50 (LAV-2ROD; [6]): 0.00053 µg/mL (≈ 0.00198 µM)
